From patent US20060127400A1, “Activation of regulatory T cells by alpha-melanocyte stimulating hormone” (THE SCHEPENS EYE RESEARCH INSTITUTE, INC., priority 1999, published 2006)
Entries after “also recorded” stand apart in the source; their conditions may differ. No end group written: not given here.

Columns and labels:
primed T cells = assay: lymphokine production by TCR-stimulated primed T cells, sandwich ELISA of culture supernatant; format: cell-based, mouse (BALB/c); conditions: 48 h supernatant
Description: Sandwich Enzyme Linked Immunosorbent Assay (ELISA). The wells of a 96-well flexible microtiter plate (Falcon, Oxnard, Calif.) were coated with capturing monoclonal antibody (anti-IFN-γ; Pharmingen, San Diego, Calif.) to the cytokine being assayed. The plate was incubated overnight at 4° C. and was washed with a solution of phosphate buffer saline, […] and 1% BSA (wash buffer) and blocked with PBS plus 1% BSA (PBS-BSA). The plate was incubated for 1 hour room temperature and washed. Samples were added to the wells and the plate was incubated for 3 hours at room temperature. The plate was washed 3 times and into each well 100 μl of 1.0 μg/ml of biotinylated-detecting monoclonal anti-IFN-γ antibody (Pharmingen) was added. The plate was incubated for 1 hour and washed 3 times. Strepavidin-β-galactosidase (Gibco/BRL), 100 μl, was added to the wells and the plate was incubated for 30 min and washed 5 times. The substrate chlorophenyl-red-β-D-galactoside (CPRG: Calbiochem, San Diego, Calif.) was added to the wells and color was allowed to develop for 30 min. The optical density of the converted CPRG was read on a standard ELISA plate reader at a wavelength of 570 nm. The INF-γ concentration of the standard samples were plotted against their OD to create a standard curve. Using this standard curve, the concentration of INF-γ in the assayed culture supernatant was determined from the OD of the test well and sample dilution factor.
α-MSH treatment of primed T cells. […] The cells were collected onto filter paper using a Tomtec Plate Harvester 96, and radiolabel was measured using a Wallac 1205 Betaplate Liquid Scintillation Counter. […]
In FIG. 16A, proliferation was measured by adding to the T cell cultures 3H-thymidine 24 hours after activation and measuring the counts per minute (CPM) 24 hours later. In FIG. 16(B-D), lymphokine production was measured by assaying the 48 hour culture supernatants by sandwich ELISA for IFN-γ, IL-4, and IL-10. […]

CD4+ T cells = assay: flow cytometry of intracellular IFN-γ and IL-4 in TCR-stimulated primed T cells; format: cell-based, mouse (BALB/c); conditions: α-MSH 30 pg/ml, anti-CD3, 24 h
Description: Flow Cytometry. For immunostaining and flow cytometry, T cells (2×10^6 cells) were obtained from 24 hour cultures of enriched primed T cells TCR-stimulated in the presence of α-MSH as described above. The cells were centrifuged and washed once in 400 μl of brefeldin/PBS buffer (10 mM PBS, 10 μg/ml brefeldin A). The cells were resuspended in 100 μl of PBS/brefeldin and 100 μl of 4% paraformaldehyde/PBS fixing buffer. The cells were incubate at room temperature for 20 minutes with gentle agitation and washed once with 200 μl of brefeldin/PBS, centrifuged, and resuspended in 50 μl of PBS/saponin (10 mM PBS, 1% BSA, 0.1% Na Azide, 0.5% Saponin) and incubated 10 minutes at room temperature. To the cell suspensions 2 μg of FITC-conjugated anti-cytokine antibody (anti-IL-4 or -IFN-γ) or FITC-isotype control was added. […] The stained cells were analyzed by a Coulter Epics flow cytometer calibrated for two color fluorescence, and presented were the fluorescence of blast (proliferating) cells in two dimensions.
To further examine α-MSH suppression of IFN-γ production by T cells, the frequency of IFN-γ producing T cells activated in the presence of α-MSH was assayed by flow cytometry. […] The stained cells were analyzed by two-color flow cytometry gating on the blastogenic, proliferating T cells. […] Percent of analyzed cell population is given for each quadrant in the lower right-hand of each histogram. […]

[1] = TCR-stimulated in the presence of α-MSH

Q: Which results are given for “α-melanocyte stimulating hormone (SYSMEHFRWGKPV; not fully specified; ends and bridges not checked; UniProt P01189 138-150, looked up) [α-MSH, synthetic α-MSH (Peninsula Laboratories); thirteen-amino acid neuropeptide derived from POMC]”?
A: IL-4 in culture supernatant (primed T cells; [1]): no effect; also recorded: no IL-4 was detected; IL-10 production (primed T cells; [1]): suppressed; IFN-γ production by TCR-stimulated primed T cells (primed T cells; versus T cells TCR-stimulated in the absence of α-MSH): significantly (p=0.05) suppressed; frequency of IFN-γ positive cells, intracellular IFN-γ staining in CD4+ T cells (CD4+ T cells): substantially shifted toward lower levels; intracellular IL-4 staining in CD4+ T cells (CD4+ T cells): shift to higher levels
